Counter-ions that a name gives are not always drawn.
Target: T1, recombinant human NR2F6 protein (Homo sapiens, UniProt P10588)
T1 sequence (P10588 1-404): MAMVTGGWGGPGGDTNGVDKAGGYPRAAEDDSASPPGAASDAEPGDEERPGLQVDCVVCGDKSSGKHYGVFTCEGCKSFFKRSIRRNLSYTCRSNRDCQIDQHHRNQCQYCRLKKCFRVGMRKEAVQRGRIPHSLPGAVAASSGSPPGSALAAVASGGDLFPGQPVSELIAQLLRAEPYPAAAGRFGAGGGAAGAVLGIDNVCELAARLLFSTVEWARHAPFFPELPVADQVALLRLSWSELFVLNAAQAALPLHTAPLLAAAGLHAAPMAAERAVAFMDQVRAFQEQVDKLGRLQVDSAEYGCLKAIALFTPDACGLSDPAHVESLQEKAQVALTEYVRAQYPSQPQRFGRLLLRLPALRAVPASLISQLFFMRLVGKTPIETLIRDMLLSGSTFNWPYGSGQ
Experiment: Biochemical NR2F6 binding assay (EnSpire label-free)
Details: label-free binding to immobilized purified recombinant human NR2F6; ligands 1 nM to 100 uM, 1% DMSO
Protocol: Purified recombinant human NR2F6 protein was dissolved in immobilization buffer at pH 4.5 and then immobilized in EnSpire-LFB High-Sensitivity User-Activated Plates at the concentration of 50 μg/well plate and left in incubation for 16 h at 4° C. Wells with only immobilization buffer were used as negative control to check the protein coating efficiency. NR2F6 ligands were resuspended in DMSO at the concentration of 10 mM, then dispensed into a plate containing assay buffer at concentrations ranging from 1 nM to 100 uM using an HP-dispenser. DMSO was normalized at the 1% of volume of each well. The final readings were taken over a period of 30 minutes. The label-free responses were measured as shifts in reflected wavelength and are expressed in picometers (pm). Results were analyzed using the EnSpire label-free user interface software, and EC50 and graphs were generated using GraphPad PRISM software. In the tables below, A is <1 μM; B is 1 to 10 μM; C is 10 to 50 μM; and D is >50 μM.

| Structure (SMILES) | EC50 |
| --- | --- |
| O=C(Nc1cccc(-c2cccnc2)c1)[C@@H]1CN(C2CCOCC2)C[C@H]1c1ccccc1 (racemic) [Compound I-54, (±)-trans-4-Phenyl-N-[3-(pyridin-3-yl)phenyl]-1-(tetrahydro-2H-pyran-4-yl)pyrrolidine-3-carboxamide] | > 50 µM |
| CC(=O)N1C[C@@H](C(=O)Nc2cccc(-c3cccnc3)c2)[C@H](c2ccccc2)C1 (racemic) [Compound I-55, (±)-trans-1-Acetyl-4-phenyl-N-[3-(pyridin-3-yl)phenyl]pyrrolidine-3-carboxamide] | > 50 µM |
| O=C(Nc1cccc2c1OCCO2)[C@H]1CNC[C@@H]1c1ccccc1 (racemic) [Compound I-65, (±)-trans-N-(2,3-Dihydro-1,4-benzodioxin-5-yl)-4-phenylpyrrolidine-3-carboxamide hydrochloride] | > 50 µM |
| O=C(Nc1ccc(Oc2cccnc2)cc1)[C@H]1CNC[C@@H]1c1ccccc1 (racemic) [Compound I-70, (±)-trans-4-Phenyl-N-[4-(pyridin-3-yloxy)phenyl]pyrrolidine-3-carboxamide dihydrochloride] | > 50 µM |
| O=C(Nc1cccc(-c2cccnc2)c1)[C@H]1CNC[C@@H]1Cc1ccccc1 (racemic) [Compound I-72, (±)-trans 4-Benzyl-N-[3-(pyridin-3-yl)phenyl]pyrrolidine-3-carboxamide dihydrochloride] | > 50 µM |
| c1ccc([C@H]2CNC[C@@H]2OCc2cccc3cnccc23)cc1 (racemic) [Compound I-73, 5-({[(±)-trans-4-Phenylpyrrolidin-3-yl]oxy}methyl)isoquinoline dihydrochloride] | > 50 µM |
| O=C(Nc1cccc2ocnc12)[C@H]1CNC[C@@H]1c1ccccc1 (racemic) [Compound I-76, (±)-trans-N-(1,3-Benzoxazol-4-yl)-4-phenylpyrrolidine-3-carboxamide dihydrochloride] | > 50 µM |
| O=C(Nc1ccc(C2CCCCC2)cc1)[C@@H]1CNC[C@H]1c1ccccc1 (racemic) [Compound I-87, (±)-trans-N-(4-Cyclohexylphenyl)-4-phenylpyrrolidine-3-carboxamide hydrochloride] | 1 to 10 µM |
| O=C(N[C@H]1C[C@H](Oc2ccc(F)cc2)C1)[C@H]1CNC[C@@H]1c1ccccc1 (racemic) [Compound I-91, (±)-trans-N-[trans-3-(4-Fluorophenoxy)cyclobutyl]-4-phenylpyrrolidine-3-carboxamide hydrochloride] | 1 to 10 µM |
| O=C(Nc1cccc(Oc2ccc(C(F)(F)F)cc2)c1)[C@H]1CNC[C@@H]1c1ccccc1 (racemic) [Compound I-92, (±)-trans-4-Phenyl-N-{3-[4-(trifluoromethyl)phenoxy]phenyl}pyrrolidine-3-carboxamide hydrochloride] | 1 to 10 µM |
| O=C(c1ccccc1)c1cccc(NC(=O)[C@H]2CNC[C@@H]2c2ccccc2)c1 (racemic) [Compound I-94, (±)-trans-4-Phenyl-N-[3-(phenylcarbonyl)phenyl]pyrrolidine-3-carboxamide hydrochloride] | 1 to 10 µM |
| Cc1cccc(Oc2cccc(NC(=O)[C@H]3CNC[C@@H]3c3ccccc3)c2)c1 (racemic) [Compound I-97, (±)-trans-4-Phenyl-N-[3-(3-methylphenoxy)phenyl]pyrrolidine-3-carboxamide hydrochloride] | 1 to 10 µM |
| O=C(Nc1cccc(Oc2ccncc2)c1)[C@H]1CNC[C@@H]1c1ccccc1 (racemic) [Compound I-98, (±)-trans-4-Phenyl-N-[3-(pyridin-4-yloxy)phenyl]pyrrolidine-3-carboxamide dihydrochloride] | > 50 µM |
| O=C(Nc1cccc(Oc2ccccn2)c1)[C@H]1CNC[C@@H]1c1ccccc1 (racemic) [Compound I-99, (±)-trans-4-Phenyl-N-[3-(pyridin-2-yloxy)phenyl]pyrrolidine-3-carboxamide dihydrochloride] | > 50 µM |
| O=C(c1cccc2cnccc12)[C@H]1CNC[C@@H]1c1ccccc1 (racemic) [Compound I-100, (±)-trans Isoquinolin-5-yl[(3S,4R)-4-phenylpyrrolidin-3-yl]methanone dihydrochloride] | 1 to 10 µM |
| O=C(N[C@H]1C[C@H](Oc2cccnc2)C1)[C@H]1CNC[C@@H]1c1ccccc1 (racemic) [Compound I-101, (±)-trans-N-[trans-3-(Pyridyn-3-yloxy)cyclobutyl]-4-phenylpyrrolidine-3-carboxamide dihydrochloride] | 10 to 50 µM |
| Cc1ccc(O[C@H]2C[C@H](NC(=O)[C@H]3CNC[C@@H]3c3ccccc3)C2)cn1 (racemic) [Compound I-102, (±)-trans-N-{trans-3-[(6-Methylpyridin-3-yl)oxy]cyclobutyl}-4-phenylpyrrolidine-3-carboxamide dihydrochloride] | 1 to 10 µM |
| Cc1ccc(Oc2cccc(NC(=O)[C@H]3CNC[C@@H]3c3ccccc3)c2)cn1 (racemic) [Compound I-105, (±)-trans-4-Phenyl-N-{3-[(6-methylpyridin-3-yl)oxy]phenyl}pyrrolidine-3-carboxamide dihydrochloride] | 1 to 10 µM |

Other lines, results leading:

| EC50 | Structure (SMILES) |
| --- | --- |
| 1 to 10 µM | c1ccc([C@@H]2CNC[C@@H]2Oc2cccc3cnccc23)cc1 (racemic) [Compound I-61, 5-{[(±)-cis-4-Phenylpyrrolidin-3-yl]oxy}isoquinoline dihydrochloride] |
| < 1 µM | O=C(Nc1cccc(-c2cccnc2)c1)[C@@H]1CN(c2ccccc2)C[C@H]1c1ccccc1 (racemic) [Compound I-62, (±)-trans-1,4-Diphenyl-N-[3-(pyridin-3-yl)phenyl]pyrrolidine-3-carboxamide] |
| 1 to 10 µM | O=C(Nc1cccc(-c2cccnc2)c1)[C@@H]1CN(Cc2ccccc2)C[C@H]1c1ccccc1 (racemic) [Compound I-63, (±)-trans-1-Benzyl-4-phenyl-N-[3-(pyridin-3-yl)phenyl]pyrrolidine-3-carboxamide] |
| 1 to 10 µM | c1ccc([C@H]2CNC[C@@H]2Oc2cccc3cnccc23)cc1 (racemic) [Compound I-64, 5-{[(±)-trans-4-Phenylpyrrolidin-3-yl]oxy}isoquinoline dihydrochloride] |
| 1 to 10 µM | O=C(Nc1ccccc1Oc1cccnc1)[C@H]1CNC[C@@H]1c1ccccc1 (racemic) [Compound I-68, (±)-trans-4-Phenyl-N-[2-(pyridin-3-yloxy)phenyl]pyrrolidine-3-carboxamide dihydrochloride] |
| < 1 µM | O=C(Nc1cccc(Oc2ccccc2)c1)[C@H]1CNC[C@@H]1c1ccccc1 (racemic) [Compound I-69, (±)-trans-N-(3-Phenoxyphenyl)-4-phenylpyrrolidine-3-carboxamide hydrochloride] |
| 1 to 10 µM | O=C(Nc1cccc(-c2cccnc2)c1)[C@H]1CNC[C@@H]1C1CCCCC1 (racemic) [Compound I-71, (±)-trans 4-Cyclohexyl-N-[3-(pyridin-3-yl)phenyl]pyrrolidine-3-carboxamide dihydrochloride] |
| 1 to 10 µM | O=C(Nc1cccc(Cc2ccccc2)c1)[C@@H]1CNC[C@H]1c1ccccc1 (racemic) [Compound I-85, (±)-trans-N-(3-Benzylphenyl)-4-phenylpyrrolidine-3-carboxamide hydrochloride] |
| 1 to 10 µM | O=C(Nc1cccc(OC2CCOCC2)c1)[C@@H]1CNC[C@H]1c1ccccc1 (racemic) [Compound I-86, (±)-trans-N-[3-(Tetrahydro-2H-pyran-4-yloxy)phenyl]-4-phenylpyrrolidine-3-carboxamide hydrochloride] |
| < 1 µM | O=C(Nc1cccc(Nc2ccccc2)c1)[C@H]1CNC[C@@H]1c1ccccc1 (racemic) [Compound I-89, (±)-trans-4-Phenyl-N-[3-(phenylamino)phenyl]pyrrolidine-3-carboxamide hydrochloride] |
| < 1 µM | N#Cc1ccc(Oc2cccc(NC(=O)[C@H]3CNC[C@@H]3c3ccccc3)c2)cc1 (racemic) [Compound I-90, (±)-trans-N-[3-(4-Cyanophenoxy)phenyl]-4-phenylpyrrolidine-3-carboxamide hydrochloride] |
| < 1 µM | O=C(Nc1cccc(Oc2ccc(F)cc2)c1)[C@H]1CNC[C@@H]1c1ccccc1 (racemic) [Compound I-93, (±)-trans-N-[3-(4-Fluorophenoxy)phenyl]-4-phenylpyrrolidine-3-carboxamide hydrochloride] |
| < 1 µM | O=C(Nc1cccc(Oc2ccc(C(F)(F)F)nc2)c1)[C@H]1CNC[C@@H]1c1ccccc1 (racemic) [Compound I-104, (±)-trans-4-Phenyl-N-(3-{[6-(trifluoromethyl)pyridin-3-yl]oxy}phenyl) pyrrolidine-3-carboxamide dihydrochloride] |
| < 1 µM | O=C(Nc1cccc(Nc2cccnc2)c1)[C@H]1CNC[C@@H]1c1ccccc1 (racemic) [Compound I-106, (±)-trans-4-Phenyl-N-[3-(pyridin-3-ylamino)phenyl]pyrrolidine-3-carboxamide dihydrochloride] |

Source: patent US20220213061A9, “HETEROCYCLIC COMPOUNDS FOR MODULATING NR2F6” (TES Pharma S.r.l., priority 2020, published 2022)
